Target: T1, hGMF-β (human glia maturation factor-β) (Homo sapiens, UniProt P60983)
T1 construct: gene GMFB; amine-coupled to CM5 chip
Assay: SPR (Biacore T200), GMF-β immobilised on CM5 chip, […] fit
Format: binding

T1 sequence (P60983 2-142): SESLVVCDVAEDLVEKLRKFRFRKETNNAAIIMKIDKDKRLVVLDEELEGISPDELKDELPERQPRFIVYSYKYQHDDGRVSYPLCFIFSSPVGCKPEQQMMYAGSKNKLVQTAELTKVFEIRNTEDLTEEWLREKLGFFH

- Kd: 20 µM
Compound: OCc1cccc2[nH]ncc12 [II, 1-H-indazole-4yl methanol]
